# Read-outs that look alike come from different tables or passages of the source.
# Key:
# Acute toxicity (LD50) = settings: mouse, in vivo
# Procedure: The catechol derivative having normal type saturated lower alkyl groups on the ring was administered by intravenous injection (i.v.), intraperitoneal injection (i.p.) or oral route (p.o.) to male ddy mice of 4-week old. The LD50 values (mg/kg) were measured by an ordinary method.
# NGF = NGF production in the central nervous system of normal rats by intraperitoneal injection (NGF content of brain tissue, ELISA); format: in vivo, rat (Wistar male); settings: Table 7, i.p., three times every other day; for NGF content after 48 hr.: 48 hours after final administration; for NGF content after 7 days: 7 days after final administration
# Procedure: The derivative (A), e.g. R=Two H, R1 =H and R2 =n-propyl (hereinafter referred to as 4-n-propylcatechol), was administered to normal rats by intraperitoneal injection, and the effect was examined.
# 4-n-Propylcatechol was administered by intraperitoneal injection 4 times every other day in a dosage of 5 mg/kg. The rats were killed two days after the final administration. The NGF content of each parts in brain was measured. The content was compared with those of control group which was administered saline alone.
# A variety of the derivative was administered three times every other day. The content of NGF in the forebrain after 48 hours and 7 days from the final administration was measured and illustrated in Table 7.
# Wistar male rats (9-10-week old, 200-250 g of weight) were intraperitoneally injected with the test derivative in a volume of 0.5 ml as a saline solution, emulsion or suspension. Dose and administration times were the same as above. The rats were killed by a hard spinal blow two days after the final administration. Each parts of brain were dissected and subjected to the following treatment under ice cooling.
# Each parts of brain were weighed and homogenized for 30 strokes by a Dounce type homogenizer in a homogenization buffer (0.1 M Tris-HCl, containing 2% bovine serum albumin fraction V, 2% gelatin, 1.0 M NaCl, 0.02% NaN3, 2 mM EDTA and 2.6 kiu/ml of aprotinin, pH 7.6) at a concentration of 10% (W/V) (only septum 5% (W/V)). Each homogenate was centrifuged at 100,000 xg for 10 minutes, and 50 μl of supernatant was added with the same amount of a dilution buffer (0.1 M Tris-HCl containing 2% bovine serum albumin fraction V, 0.05% NaN3 and 20 mM CaCl2, pH 7.6). Determination was conducted in accordance with a method of S. Furukawa et al. by using a high sensitivity ELISA system on 8-NGF which was described in J. Neurochem., 40, 734-744 (1983). Lower limit of determination is 0.25 pg/ml. Data are indicated as a mean value ±SE on the NGF content of tissue (pg/mg wet tissue) of five rats.
# [1] = tested on: production and secretion of NGF on L-M cells; assay: Promoting action for the production and secretion of NGF on L-M cells of mouse (ELISA); format: cell-based; settings: for fold induction at 30 µM / fold induction at 100 µM / fold induction at 150 µM: Mus musculus; for Ratio of NGF increase: 1440 min
# Description: Catecholamines have also been found in a relatively high concentration to accelerate these functions without being mediated by adrenergic receptors [Y. Furukawa et al., J. Biol. Chem., 261, 6039-6047 (1986)].
# The compound having a high activity in Table 1, that is, the catechol derivative having a n-alkyl group in the 3 or 4 position on the ring has been observed an acute cell toxicity in higher concentrations. The toxicity was considered the result of two hydroxyl groups in the catechol structure. Then the hydroxyl groups were esterified or etherified and the resulting derivative was examined the effect on the activity for the production and secretion of NGF.
# The experiment was performed according to the procedures of Y. Furukawa et al. which is described in J. Bis Chem., 261, 6039-6047 (1986).
# The medium was cultured for 3 days at a temperature of 37° C. After completing the confluency (about 10^6 cells/well), the medium was changed to Medium 199 (0.5 ml/well) containing 0.5% bovine serum albumin (Fraction V, a product of Armour Co.). The sample of the derivative is contained in the medium at a prescribed concentration as illustrated in the Tables.
# [2] = tested on: production and secretion of NGF in brain astroglial cells; assay: Promoting activity for the production and secretion of NGF in brain astroglial cells of mouse (ELISA)
# Procedure: The experiment was performed by inducing the astroglial cells from mouse forebrain to culture system according to the procedures of S. Furukawa et al. which is described in Biochem. Biophys. Res. Commun., 136, 57-63 (1986).
# That is, forebrains of 8-day old mice were dissected out and cut into small pieces. […] Cells and cell clamps were recovered by centrifugation at 200 xg for 5 minutes. They were cultured in Dulbecco modified Eagle's medium (a product of Gibco Co. hereinafter abbreviated as DMEM) containing 10% of fetal calf serum, […] of penicillin, and 50 μg/ml of streptomycin, for 10 to 14 days with medium changes every 3 days. After completing confluency, the cells were dissociated by trypsin treatment and recultured in new culture flasks. This procedure was repeated further twice and more. […] The cells will hereinafter be referred to as astroglial cells.
# Astroglial cells were innoculated in 24-well plates having a well surface area of 2.1 cm^2 (a product of Falcon Co.) at a cell density of about 3×10^4 cells/well and cultured for 3 days in DMEM . medium supplemented with 10% of fetal calf serum. After completing confluency about 10^7 cells/well), the medium was changed to DMEM medium (0.5 ml/well) supplemented with 0.5% of bovine serum albumin ((fraction V) and cultured for 3 days. The culture was further continued with medium changes every 3 days. After cells were practically synchronized in the quiscent stage, the medium was changed to 0.5 ml of the medium supplemented with 0.5% of bovine serum albumin and containing a prescribed concentration of test sample as illustrated in Tables. […] Data are expressed as fold increase in NGF content over that in the absence of the test sample. […] Data are presented as means ±SE of four determinations.
# [3] = ip, intraperitoneal injection, read-out: LD50 i.p.
# [4] = intravenous injection, read-out: LD50 i.v.
# [5] = oral route, read-out: LD50 p.o.
# [6] = 24 h, read-out: Ratio of NGF increase
# [7] = 24 h, read-out: Ratio of NGF increase, 24-hr culture
# [8] = 48 h, read-out: Ratio of NGF increase, 48-hr culture
# [9] = 24 h, read-out: Ratio of NGF increase, 24-hr culture, Table 4, 0.10 mM, 24-hr culture
# [10] = 24 h, read-out: Ratio of NGF increase, 24-hr culture, Table 4, 0.25 mM, 24-hr culture
# [11] = 24 h, read-out: Ratio of NGF increase, Table 3, 0.10 mM, 24 hours, mean ± SE of four determinations
# [12] = 24 h, read-out: Ratio of NGF increase, Table 3, 0.25 mM, 24 hours, mean ± SE of four determinations
# [13] = 48 h, read-out: Ratio of NGF increase, 48-hr culture, Table 4, 0.10 mM, 48-hr culture
# [14] = 48 h, read-out: Ratio of NGF increase, 48-hr culture, Table 4, 0.25 mM, 48-hr culture
# [15] = 24 h, Table 1, 0.03 mM, 24 hours, mean ± SE of four determinations, read-out: Ratio of NGF increase
# [16] = 24 h, Table 1, 0.10 mM, 24 hours, mean ± SE of four determinations, read-out: Ratio of NGF increase
SMILES,LD50 (Acute toxicity (LD50); [3]) [mg/kg],LD50 (Acute toxicity (LD50); [4]) [mg/kg],LD50 (Acute toxicity (LD50); [5]) [mg/kg],NGF content after 48 hr. (NGF),NGF content after 7 days (NGF),"fold induction at 100 µM [2, 11]","fold induction at 250 µM [2, 12]","fold induction at 30 µM [1, 15]","fold induction at 100 µM [1, 16]",further results
"CCCc1ccc(OC(C)=O)c(OC(C)=O)c1 [R = Two acetyl, R1 = H, R2 = n-Propyl, 1,2-diacetoxy-4-propylbenzene]",> 750,> 250,> 2500,1.71 ± 0.28 pg/mg wet tissue of frontal co,2.16 ± 0.46 pg/mg wet tissue of frontal co,–,–,–,–,–
"Cc1ccc(O)c(O)c1 [R = Two H, R1 = H, R2 = Methyl, 4-Methylcatechol]",> 200,> 50,> 500,2.26 ± 0.24 pg/mg wet tissue of frontal co,1.64 ± 0.46 pg/mg wet tissue of frontal co,80.8 ± 4.21,4.89 ± 1.37,–,–,"fold induction at 30 µM [1, 6]: 8.91 ± 0.43; fold induction at 100 µM [1, 6]: 2.36 ± 1.9; fold induction at 30 µM [1, 7]: 8.77 ± 0.66; fold induction at 150 µM [1, 7]: 2.87 ± 0.54; fold induction at 30 µM [1, 8]: 9.21 ± 0.69; fold induction at 150 µM [1, 8]: 2.49 ± 0.88; fold induction at 100 µM [2, 9]: 77.3 ± 9.21; fold induction at 250 µM [2, 10]: 6.59 ± 1.34; fold induction at 100 µM [2, 13]: 106 ± 7.61; fold induction at 250 µM [2, 14]: 2.47 ± 1.22"
"CCCc1ccc2oc(=O)c(=O)oc2c1 [R = --CO.CO--, R1 = H, R2 = n-Propyl, 6-n-propyl-1,4-benzodioxine-2,3-dione]",> 1250,> 250,> 3000,1.54 ± 0.20 pg/mg wet tissue of frontal co,2.02 ± 0.47 pg/mg wet tissue of frontal co,–,–,–,–,–
"CCCCc1ccc(O)c(O)c1 [R = Two H, R1 = H, R2 = n-Butyl, 4-n-butylcatechol]",> 500,> 150,> 1500,1.88 ± 0.46 pg/mg wet tissue of frontal co,2.25 ± 0.33 pg/mg wet tissue of frontal co,59.7 ± 3,88.3 ± 2.47,–,–,"fold induction at 30 µM [1, 6]: 8.21 ± 1.1; fold induction at 100 µM [1, 6]: 14 ± 1.33"
"CCCc1ccc2c(c1)OC(C)(C)O2 [R = --C(CH3)2 --, R1 = H, R2 = n-Propyl, 5-n-Propyl-2,2-dimethyl-1,3-benzodioxol]",> 1500,> 500,> 3500,1.15 ± 0.18 pg/mg wet tissue of frontal co,1.51 ± 0.49 pg/mg wet tissue of frontal co,–,–,–,–,–
"CCCc1cccc(O)c1O [R = Two H, R1 = n-Propyl, R2 = H]",–,–,–,2.03 ± 0.37 pg/mg wet tissue of frontal co,2.00 ± 0.43 pg/mg wet tissue of frontal co,72.9 ± 7.09,97 ± 9.24,–,–,"LD50 (Acute toxicity (LD50); ip, read-out: LD50 i.p.): > 500 mg/kg; LD50 (Acute toxicity (LD50); iv, read-out: LD50 i.v.): > 150 mg/kg; LD50 (Acute toxicity (LD50); po, read-out: LD50 p.o.): > 1500 mg/kg; fold induction at 30 µM [1, 6]: 9.81 ± 0.92; fold induction at 100 µM [1, 6]: 16.3 ± 2.04"
"CCc1ccc(O)c(O)c1C [R = Two H, R1 = Methyl, R2 = Ethyl]",–,–,–,–,–,50.3 ± 6.27,26.2 ± 2.6,6.31 ± 0.39,3.19 ± 0.73,"Ratio of NGF increase ([1]; Table 1, 0.03 mM, 24 hours, mean ± SE of four determinations, 30 µM): 5.39 ± 0.31 fold; Ratio of NGF increase ([1]; Table 1, 0.10 mM, 24 hours, mean ± SE of four determinations, 100 µM): 5.22 ± 0.27 fold"
"Cc1ccc2c(c1)OC(C)(C)O2 [C(CH3)2 -, R1 = H, R2 = Methyl, 5,2,2-trimethyl-1,3-benzodioxol]",–,–,–,–,–,–,–,–,–,"fold induction at 30 µM ([1]; 24 h, Table 2, 0.03 mM, 24-hr culture, read-out: Ratio of NGF increase, 24-hr culture): 1.35 ± 0.12; fold induction at 150 µM ([1]; 24 h, Table 2, 0.15 mM, 24-hr culture, read-out: Ratio of NGF increase, 24-hr culture): 1.22 ± 0.08; fold induction at 30 µM ([1]; 48 h, Table 2, 0.03 mM, 48-hr culture, read-out: Ratio of NGF increase, 48-hr culture): 4.33 ± 1.05; fold induction at 150 µM ([1]; 48 h, Table 2, 0.15 mM, 48-hr culture, read-out: Ratio of NGF increase, 48-hr culture): 3.86 ± 0.84; fold induction at 100 µM [2, 9]: 28.6 ± 2.23; fold induction at 250 µM [2, 10]: 33.7 ± 2.09; fold induction at 100 µM [2, 13]: 41.6 ± 2.21; fold induction at 250 µM [2, 14]: 55.2 ± 4.42"
"CCCCCc1cccc(O)c1O [R = Two H, R1 = n-Pentyl, R2 = H]",–,–,–,–,–,37.2 ± 1.28,51.5 ± 1.4,5.26 ± 0.43,9.95 ± 0.98,–
"CCCc1ccc(O)c(O)c1C [R = Two H, R1 = Methyl, R2 = n-Propyl]",–,–,–,–,–,41.3 ± 2.55,61.6 ± 4.62,6.34 ± 0.46,7.25 ± 0.32,–
"Cc1c(C(C)(C)C)ccc(O)c1O [R = Two H, R1 = Methyl, R2 = tert-Butyl]",–,–,–,–,–,9.65 ± 2.42,24.2 ± 2.73,2.82 ± 0.14,3.65 ± 0.39,–
"CCC(C)c1ccc(O)c(O)c1 (stereo not shown) [R = Two H, R1 = H, R2 = sec-Butyl]",–,–,–,–,–,36.3 ± 3.49,70.1 ± 5.75,9.23 ± 1.41,14.7 ± 1.87,–
"Cc1cccc(O)c1O [R = Two H, R1 = Methyl, R2 = H]",–,–,–,–,–,76.3 ± 6.34,5.02 ± 1.98,–,–,"LD50 (Acute toxicity (LD50); ip, read-out: LD50 i.p.): > 200 mg/kg; LD50 (Acute toxicity (LD50); iv, read-out: LD50 i.v.): > 50 mg/kg; LD50 (Acute toxicity (LD50); po, read-out: LD50 p.o.): > 500 mg/kg; fold induction at 30 µM [1, 6]: 8.34 ± 0.82; fold induction at 100 µM [1, 6]: 3.92 ± 1.23"
"CC(C)c1ccc(O)c(O)c1 [R = Two H, R1 = H, R2 = Isopropyl]",–,–,–,–,–,34.6 ± 1.62,42.9 ± 2.93,6.17 ± 0.44,5.9 ± 0.41,–

# From patent US5214034A, “Catechol derivatives, and preventive and remedial preparations for regressive disorders in the central nervous system containing the same” (priority 1986, dated 1993)
